Source: patent US20170107212A1, “NOVEL COMPOUNDS” (Bayer Pharma Aktiengesellschaft, priority 2014, published 2017)

Key:
[1] = system: constitutive active colorectal cancer cell (CRC) Wnt pathway, HCT116 TOPFlash; assay: Cellular reporter assay, HCT116 Super TopFlash (constitutive active Wnt pathway), luciferase expression; format: cell-based; settings: Homo sapiens, HCT-116, 36 h, HCT116 Super TopFlash reporter cells, 36 hours incubation, dilution series 50 μM to 15 nM
Experimental: In order to discover and characterize small molecules which inhibit the constitutive active colorectal cancer cell (CRC) Wnt pathway, a cellular reporter assay was employed. The corresponding assay cell was generated by transfection of the colorectal cancer cell line HCT116 (ATCC, #CCL-247) with the Super TopFlash vector (Morin, Science 275, 1997, 1787-1790; Molenaar et al., Cell 86 (3), 1996, 391-399). The HCT116 cell line is cultivated at 37° C. and 5% CO2 in DMEM/F-12 (Life Technologies, #11320-074), supplemented with 2 mM glutamine, 20 mM HEPES, 1.4 mM pyruvate, 0.15% Na-bicarbonate and 10% foetal bovine serum (GIBCO, #10270), this cancer cell line is pathophysiological relevant since it carries a deletion of position S45 in the β-catenin gene, leading to constitutive active Wnt signaling. Stable transfectants were generated by cotransfection with pcDNA3 and selection of stable transfected cells with 1 mg/ml G418.
(§1) In preparation of the assay, the two cell lines were plated 24 hours before at 10000 cells per well of a 384 micro titre plate (MTP) in 30 μL growth medium. Selective inhibitory activity for small molecules on the mutated Wnt pathway was determined after parallel incubation of both (TOP and FOP) HCT116 reporter cell lines with a compound dilution series from 50 μM to 15 nM in steps of 3.16-fold dilutions in CAFTY buffer (130 mM NaCl, 5 mM KCl, 20 mM HEPES, 1 mM MgCl2, 5 mM NaHCO3, pH 7.4) containing 2 mM Ca^2+ and 0.01% BSA. The compounds were thereby serially prediluted in 100% DMSO and thereafter in addition 50 fold into the CAFTY compound dilution buffer (described above). From this dilution 10 μL were added to the cells in 30 μL growth medium and incubated for 36 hours at 37° C. and 5% CO2. Thereafter luciferase assay buffer (1:1 mixture of luciferase substrate buffer (20 mM Tricine, 2.67 mM MgSO4, 0.1 mM EDTA, 4 mM DTT, 270 μM Coenzyme A, 470 μM Luciferin, 530 μM ATP, ph adjusted to pH 7.8 with a sufficient volume of 5M NaOH) and Triton buffer (30 mL Triton X-100, 115 mL glycerol, 308 mg Dithiothreitol, 4.45 g Na2HPO4.2H2O, 3.03 g TRIS HCl, ad 1 l H20, pH 7.8) was added as equal volume to the compound solution on the cells to determine luciferase expression as a measure of Wnt signaling activity in a luminometer.

HCT116 FOPFlash = assay: Control reporter assay, HCT116 FOP control vector (non-functional TCF elements), luciferase expression; format: cell-based; settings: Homo sapiens, HCT-116, 36 h, HCT116 FOP control reporter cells, 36 hours incubation, dilution series 50 μM to 15 nM
Experimental: In a parallel approach, HCT116 cells were cotransfected with the FOP control vector and pcDNA3. The FOP vector is identical to the TOP construct, but it contains instead of functional TCF elements a randomized, non-functional sequence. For this transfection a stable transfected cell line was generated as well.
as §1

| IC50 [1] [µM] | IC50 (HCT116 FOPFlash) [µM] | Structure (SMILES) |
| --- | --- | --- |
| 0.34 | ≥ 50 | Cc1ccncc1-c1nnc(NC(=O)c2ccc(OCC(F)(F)F)c(NC(=O)CN3CCN(C)CC3)c2)s1 [Example 61, 3-{[(4-methylpiperazin-1-yl)acetyl]amino}-N-[5-(4-methylpyridin-3-yl)-1,3,4-thiadiazol-2-yl]-4-(2,2,2-trifluoroethoxy)benzamide] |
| 7.05 | ≥ 50 | CN1CCN(CC(=O)Nc2cc(C(=O)Nc3nnc(-c4cnccn4)s3)ccc2OC(F)(F)F)CC1 [Example 97, 3-{[(4-methylpiperazin-1-yl)acetyl]amino}-N-[5-(pyrazin-2-yl)-1,3,4-thiadiazol-2-yl]-4-(trifluoromethoxy)benzamide] |
| ≥ 50 | ≥ 50 | Nc1cc(-c2nnc(NC(=O)c3ccc(OC(F)(F)F)c(NC(=O)CN4CCOCC4)c3)s2)ccn1 [Example 98, N-[5-(2-aminopyridin-4-yl)-1,3,4-thiadiazol-2-yl]-3-[(morpholin-4-ylacetyl)amino)-4-(trifluoromethoxy)benzamide] |
| 27 | ≥ 50 | O=C(CN1CCOCC1)Nc1cc(C(=O)Nc2nnc(-c3cccnc3)s2)ccc1OC1COC1 [Example 113, 3-[(morpholin-4-ylacetyl)amino)-4-(oxetan-3 yloxy)-N-[5-(pyridin-3-yl)-1,3,4-thiadiazol-2-yl]benzamide] |
| ≥ 50 | ≥ 50 | Cc1ncsc1-c1nnc(NC(=O)c2ccc(OC(F)(F)F)c(NC(=O)CN3CCN(C)CC3)c2)s1 [Example 111, 3-{[(4-methylpiperazin-1-yl)acetyl]amino}-N-[5-(4-methyl-1,3-thiazol-5-yl)-1,3,4-thiadiazol-2-yl]-4-(trifluoromethoxy)benzamide] |
| 0.155 | ≥ 50 | O=C(CN1CCOCC1)Nc1cc(C(=O)Nc2cnc(-c3cccnc3)s2)ccc1OC1CC1 [Example 76, 4-(cyclopropyloxy)-3-[(morpholin-4-ylacetyl)amino]-N-[2-(pyridin-3-yl)-1,3-thiazol-5-yl]benzamide] |
| 23.2 | ≥ 50 | Nc1ncc(-c2nnc(NC(=O)c3ccc(OC(F)(F)F)c(NC(=O)CN4CCOCC4)c3)s2)cn1 [Example 94, N-[5-(2-aminopyrimidin-5-yl)-1,3,4-thiadiazol-2-yl]-3-[(morpholin-4-ylacetyl)amino]-4-(trifluoromethoxy)benzamide] |
| 0.585 | ≥ 50 | O=C(CN1CCOCC1)Nc1cc(C(=O)Nc2nnc(-c3cncc(Cl)c3)s2)ccc1OC(F)(F)F [Example 47, N-[5-(5-chloropyridin-3-yl)-1,3,4-thiadiazol-2-yl]-3-[(morpholin-4-ylacetyl)amino]-4-(trifluoromethoxy)benzamide] |
| 17.9 | ≥ 50 | Nc1ncc(-c2nnc(NC(=O)c3ccc(OC(F)(F)F)c(NC(=O)CN4CCOCC4)c3)s2)s1 [Example 104, N-[5-(2-amino-1,3-thiazol-5-yl)-1,3,4-thiadiazol-2-yl]-3-[(morpholin-4-ylacetyl)amino]-4-(trifluoromethoxy)benzamide] |
| 12.5 | ≥ 50 | O=C(Nc1nnc(-c2cccnc2)s1)c1ccc(Cl)c(NC(=O)C2(N3CCN(C4CC4)CC3)CC2)c1 [Example 85, 4-chloro-3-({[1-(4-cyclopropylpiperazin-1-yl)cyclopropyl]carbonyl}amino)-N-[5-(pyridin-3-yl)-1,3,4-thiadiazol-2-yl]benzamide] |
| 4 | ≥ 50 | COc1ccc(NC(=O)c2ccc(-c3cccs3)nc2)cc1NC(=O)CN1CCOCC1 [Example 24, N-{4-methoxy-3-[(morpholin-4-ylacetyl)amino]phenyl}-6-(thiophen-2-yl)pyridine-3-carboxamide] |
| ≥ 50 | ≥ 50 | Cc1ccncc1-c1nnc(NC(=O)c2ccc(OCC3COC3)c(NC(=O)CN3CCN(C)CC3)c2)s1 [Example 115, 3-{[(4-methylpiperazin-1-yl)acetyl]amino}-N-[5-(4-methylpyridin-3-yl)-1,3,4-thiadiazol-2-yl]-4-(oxetan-3-ylmethoxy)benzamide] |
| 0.0195 | ≥ 50 | CC(C(=O)Nc1cc(C(=O)Nc2ccc(-c3cncnc3)nc2)ccc1OC(F)(F)F)N1CCOCC1 (stereo not drawn) [Example 4, 3-{[2-(morpholin-4-yl)propanoyl]amino}-N-[6-(pyrimidin-5-yl)pyridin-3-yl]-4-(trifluoromethoxy)benzamide] |
| 1.01 | 8.55 | Cc1ccnc(-c2nnc(NC(=O)c3ccc(OC(F)(F)F)c(NC(=O)CN4CCN(C)CC4)c3)s2)c1 [Example 62, 3-{[(4-methylpiperazin-1-yl)acetyl]amino}-N-[5-(4-methylpyridin-2-yl)-1,3,4-thiadiazol-2-yl]-4-(trifluoromethoxy)benzamide] |
| 1.11 | 46 | CN1CCN(CC(=O)Nc2cc(C(=O)Nc3nnc(-c4cscn4)s3)ccc2OC(F)(F)F)CC1 [Example 64, 3-{[(4-methylpiperazin-1-yl)acetyl]amino}-N-[5-(1,3-thiazol-4-yl)-1,3,4-thiadiazol-2-yl]-4-(trifluoromethoxy)benzamide] |
| 0.0165 | ≥ 50 | CC(C(=O)Nc1cc(C(=O)Nc2ccc(-c3cccnc3F)nc2)ccc1OC(F)(F)F)N1CCOCC1 (stereo not drawn) [Example 5, N-(2′-fluoro-2,3′-bipyridin-5-yl)-3-{[2-(morpholin-4-yl)propanoyl]amino}-4-(trifluoromethoxy)benzamide] |
| 0.019 | ≥ 50 | CC(C(=O)Nc1cc(C(=O)Nc2ccc(-c3cnc(N)nc3)nc2)ccc1OC(F)(F)F)N1CCOCC1 (stereo not drawn) [Example 6] |
| 0.24 | ≥ 50 | CN1CCN(CC(=O)Nc2cc(C(=O)Nc3nnc(-c4cncc(C(F)(F)F)c4)s3)ccc2OC(F)(F)F)CC1 [Example 57, 3-{[(4-methylpiperazin-1-yl)acetyl]amino}-4-(trifluoromethoxy)-N-{5-[5-(trifluoromethyl)pyridin-3-yl]-1,3,4-thiadiazol-2-yl}benzamide] |
| 0.0209 | ≥ 50 | CC(C(=O)Nc1cc(C(=O)Nc2ccc(-c3ccc(N)nc3)nc2)ccc1OC(F)(F)F)N1CCOCC1 (stereo not drawn) [Example 3, N-(6′-amino-2,3′-bipyridin-5-yl)-3-{[2-(morpholin-4-yl)propanoyl]amino}-4-(trifluoromethoxy)benzamide] |
| 0.282 | ≥ 50 | O=C(Nc1nnc(-c2cccnc2)s1)c1ccc(OC(F)(F)F)c(NC(=O)C2(N3CCOCC3)CC2)c1 [Example 2, 3-({[1-(morpholin-4-yl)cyclopropyl]carbonyl}amino)-N-[5-(pyridin-3-yl)-1,3,4-thiadiazol-2-yl]-4-(trifluoromethoxy)benzamide] |
| 2.7 | ≥ 50 | Cc1ncccc1-c1nnc(NC(=O)c2ccc(OC(F)(F)F)c(NC(=O)CN3CCN(C)CC3)c2)s1 [Example 27, 3-{[(4-methylpiperazin-1-yl)acetyl]amino}-N-[5-(2-methylpyridin-3-yl)-1,3,4-thiadiazol-2-yl]-4-(trifluoromethoxy)benzamide] |
| 0.5 | ≥ 50 | CN1CCN(C2(C(=O)Nc3cc(C(=O)Nc4nnc(-c5cccnc5)s4)ccc3Cl)CC2)CC1 [Example 26, 4-chloro-3-({[1-(4-methylpiperazin-1-yl)cyclopropyl]carbonyl}amino)-N-[5-(pyridin-3-yl)-1,3,4-thiadiazol-2-yl]benzamide] |
| ≥ 50 | ≥ 50 | O=C(CN1CCOCC1)Nc1cc(C(=O)Nc2nnc(-c3ccncc3)s2)ccc1OC(F)(F)F [Example 81, 3-[(morpholin-4-ylacetyl)amino]-N-[5-(pyridin-4-yl)-1,3,4-thiadiazol-2-yl]-4-(trifluoromethoxy)benzamide] |
| 0.128 | ≥ 50 | CN1CCN(C2(C(=O)Nc3cc(C(=O)Nc4nnc(-c5cnc(N)nc5)s4)ccc3OC(F)(F)F)CC2)CC1 [Example 32, N-[5-(2-aminopyrimidin-5-yl)-1,3,4-thiadiazol-2-yl]-3-({[1-(4-methylpiperazin-1-yl)cyclopropyl]carbonyl}amino)-4-(trifluoromethoxy)benzamide] |
